Assays:
Format in all cases: biochemical
[1] = molecular target: T1, human IP6K1 (Homo sapiens, UniProt Q92551); experiment: IP6K enzyme inhibitory assay (ADP-Glo Kinase Assay), human IP6K1; settings: compound concentration 0.1 μM; read-out: ADP-Glo method inhibitory rate (%) human IP6K1
T1 construct: human IP6K1 (1-441) gene; GST; made in house; host or cells: Sf-9 insect cells
In short: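 Inhibition of human IP6K1 was determined with Promega's ADP-Glo Kinase Assay in 384 well plates. Test compound diluted in assay buffer (20 mM HEPES (pH 7.5), 6 mM MgCl2, 0.01% Tween-20, 1 mM DTT) was added at 2 μL, then 2 μL of enzyme started the reaction for 60 min at room temperature. Next came 3 μL ADP-Glo solution for 30 min and 6 μL Kinase-Detection solution for 60 min. Luminescence was read on an Envision plate reader.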

[2] = molecular target: T2, human IP6K2 (Homo sapiens, UniProt Q9UHH9); experiment: IP6K enzyme inhibitory assay (ADP-Glo Kinase Assay), human IP6K2; settings: compound concentration 0.1 μM; read-out: ADP-Glo method inhibitory rate (%) human IP6K2
T2 construct: human IP6K2 (1-426) gene; GST; made in house; host or cells: Sf-9 insect cells
T2 sequence (Q9UHH9 1-426): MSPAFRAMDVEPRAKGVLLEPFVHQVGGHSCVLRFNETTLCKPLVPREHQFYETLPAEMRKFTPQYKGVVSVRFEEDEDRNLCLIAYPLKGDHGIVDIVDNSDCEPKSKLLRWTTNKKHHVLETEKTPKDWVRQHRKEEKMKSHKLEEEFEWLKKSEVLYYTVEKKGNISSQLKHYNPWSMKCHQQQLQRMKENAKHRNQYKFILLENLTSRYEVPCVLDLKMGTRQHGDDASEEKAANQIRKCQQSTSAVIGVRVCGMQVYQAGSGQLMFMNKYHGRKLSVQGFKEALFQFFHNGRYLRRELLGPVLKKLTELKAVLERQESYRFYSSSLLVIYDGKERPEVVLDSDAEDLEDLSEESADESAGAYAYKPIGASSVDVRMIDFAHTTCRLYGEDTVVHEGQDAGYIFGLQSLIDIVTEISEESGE
In short: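 The inhibitory activity against human IP6K2 was measured with Promega's ADP-Glo Kinase Assay in 384 well plates. Test compound, diluted in assay buffer (20 mM HEPES (pH 7.5), 6 mM MgCl2, 0.01% Tween-20, 1 mM DTT), was added at 2 μL. Adding 2 μL of diluted enzyme started the reaction, which ran for 60 min at room temperature. Next, 3 μL ADP-Glo solution (30 min) and 6 μL Kinase-Detection solution (60 min) were added, and luminescence was read on an Envision plate reader.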

[3] = molecular target: T3, human IP6K3 (Homo sapiens, UniProt Q96PC2); experiment: IP6K enzyme inhibitory assay (ADP-Glo Kinase Assay), human IP6K3; settings: compound concentration 0.1 μM; read-out: ADP-Glo method inhibitory rate (%) human IP6K3
T3 construct: human IP6K3 (1-410) gene; made in house; host or cells: BL21 (DE3) Escherichia coli
T3 sequence (Q96PC2 1-410): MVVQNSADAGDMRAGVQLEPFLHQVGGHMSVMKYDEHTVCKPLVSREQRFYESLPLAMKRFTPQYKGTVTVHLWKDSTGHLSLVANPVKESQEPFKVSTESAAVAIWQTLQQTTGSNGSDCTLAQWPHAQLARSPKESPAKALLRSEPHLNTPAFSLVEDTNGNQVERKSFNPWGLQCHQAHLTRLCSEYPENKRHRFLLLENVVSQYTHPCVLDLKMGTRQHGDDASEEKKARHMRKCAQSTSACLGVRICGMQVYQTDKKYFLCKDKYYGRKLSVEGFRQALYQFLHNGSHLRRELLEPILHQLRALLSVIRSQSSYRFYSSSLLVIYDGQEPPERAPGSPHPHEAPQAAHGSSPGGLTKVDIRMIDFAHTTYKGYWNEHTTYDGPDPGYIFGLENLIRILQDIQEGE
In short: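 Recombinant human IP6K (IP6K3 residues 1-410, E. coli, Ni-NTA purified) incubated with compound in 20 mM HEPES pH 7.5, 6 mM MgCl2, 0.01% Tween-20, 1 mM DTT for 60 min at room temperature. ADP formed read as luminescence by ADP-Glo.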

T1 sequence (Q92551 whole entry): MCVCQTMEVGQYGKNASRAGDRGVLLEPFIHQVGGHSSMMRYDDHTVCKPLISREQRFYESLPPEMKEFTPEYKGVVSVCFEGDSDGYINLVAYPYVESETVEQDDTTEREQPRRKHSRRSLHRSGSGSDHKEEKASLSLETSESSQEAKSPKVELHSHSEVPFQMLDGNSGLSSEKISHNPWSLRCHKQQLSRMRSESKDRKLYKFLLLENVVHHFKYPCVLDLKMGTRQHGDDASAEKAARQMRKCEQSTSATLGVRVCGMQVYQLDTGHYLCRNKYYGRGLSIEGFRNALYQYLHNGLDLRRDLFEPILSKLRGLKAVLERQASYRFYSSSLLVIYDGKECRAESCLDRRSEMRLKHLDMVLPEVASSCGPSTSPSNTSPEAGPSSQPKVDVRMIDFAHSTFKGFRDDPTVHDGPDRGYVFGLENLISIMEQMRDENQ

Row | Structure (SMILES) | inhibition at 0.1 µM [1] [%] | inhibition at 0.1 µM [2] [%] | inhibition at 0.1 µM [3] [%]
1 | O=C(O)c1ccc2c(n1)[C@]1(CC[C@@H](Oc3ncc(C(F)(F)F)cc3Cl)CC1)C(=O)N2 [Example 105, (1r,4r)-4-((3-chloro-5-(trifluoromethyl)pyridin-2-yl)oxy)-2′-oxo-1′,2′-dihydrospiro[cyclohexane-1,3′-pyrrolo[3,2-b]pyridine]-5′-carboxylic acid] | 86 | 94 | 95
2 | Cc1c(Cl)cnc(O[C@H]2CC[C@]3(CC2)C(=O)Nc2ccc(C(=O)O)nc23)c1C#N [Example 106, (1s,4s)-4-((5-chloro-3-cyano-4-methylpyridin-2-yl)oxy)-2′-oxo-1′,2′-dihydrospiro[cyclohexane-1,3′-pyrrolo[3,2-b]pyridine]-5′-carboxylic acid] | 96 | 97 | 95
3 | O=C(O)c1ccc2c(c1)[C@]1(CC[C@H](Oc3ccccc3)CC1)C(=O)N2 [Example 107, (1s,4s)-2′-oxo-4-phenoxy-1′,2′-dihydrospiro[cyclohexane-1,3′-indole]-5′-carboxylic acid] | 94 | 93 | 92
4 | O=C(O)c1ccc2c(c1)[C@]1(CC[C@H](Oc3ccc(Cl)cc3)CC1)C(=O)N2 [Example 108, (1s,4s)-4-(4-chlorophenoxy)-2′-oxo-1′,2′-dihydrospiro[cyclohexane-1,3′-indole]-5′-carboxylic acid] | 97 | 101 | 99
5 | O=C(O)c1ccc2c(n1)[C@]1(CC[C@@H](Oc3ncc(C4CC4)cc3C(F)(F)F)CC1)C(=O)N2 [Example 109, (1r,4r)-4-((5-cyclopropyl-3-(trifluoromethyl)pyridin-2-yl)oxy)-2′-oxo-1′,2′-dihydrospiro[cyclohexane-1,3′-pyrrolo[3,2-b]pyridine]-5′-carboxylic acid] | 94 | 95 | 95
6 | N#Cc1cc(Cl)cnc1O[C@H]1CC[C@]2(CC1)C(=O)Nc1ccc(C(=O)O)nc12 [Example 110, (1s,4s)-4-((5-chloro-3-cyanopyridin-2-yl)oxy)-2′-oxo-1′,2′-dihydrospiro[cyclohexane-1,3′-pyrrolo[3,2-b]pyridine]-5′-carboxylic acid] | 84 | 96 | 96
7 | O=C(O)c1ccc2c(n1)[C@]1(CC[C@H](Oc3ncc(C4CC4)cc3Cl)CC1)C(=O)N2 [Example 111, (1s,4s)-4-((3-chloro-5-cyclopropylpyridin-2-yl)oxy)-2′-oxo-1′,2′-dihydrospiro[cyclohexane-1,3′-pyrrolo[3,2-b]pyridine]-5′-carboxylic acid] | 91 | 99 | 98
8 | Cc1cc(C(F)(F)F)cnc1O[C@H]1CC[C@@]2(CC1)C(=O)Nc1ccc(C(=O)O)nc12 [Example 112, (1r,4r)-4-((3-methyl-5-(trifluoromethyl)pyridin-2-yl)oxy)-2′-oxo-1′,2′-dihydrospiro[cyclohexane-1,3′-pyrrolo[3,2-b]pyridine]-5′-carboxylic acid] | 90 | 90 | 97
9 | O=C(O)c1ccc2c(c1)[C@]1(CC[C@@H](Oc3ccccc3)CC1)C(=O)N2 [Example 113, (1r,4r)-2′-oxo-4-phenoxy-1′,2′-dihydrospiro[cyclohexane-1,3′-indole]-5′-carboxylic acid] | 79 | 79 | 85
10 | O=C(O)c1ccc2c(c1)[C@]1(CC[C@@H](Oc3ccc(Cl)cc3)CC1)C(=O)N2 [Example 114, (1r,4r)-4-(4-chlorophenoxy)-2′-oxo-1′,2′-dihydrospiro[cyclohexane-1,3′-indole]-5′-carboxylic acid] | 99 | 101 | 96
11 | O=C(O)c1ccc2c(n1)[C@]1(CC[C@H](Oc3ncc(C(F)(F)F)cc3Cl)CC1)C(=O)N2 [Example 115, (1s,4s)-4-((3-chloro-5-(trifluoromethyl)pyridin-2-yl)oxy)-2′-oxo-1′,2′-dihydrospiro[cyclohexane-1,3′-pyrrolo[3,2-b]pyridine]-5′-carboxylic acid] | 97 | 99 | 99

From patent US10968178B2, “IP6K inhibitors” (TAKEDA PHARMACEUTICAL COMPANY LIMITED, priority 2017, dated 2021)
